Source: US10916331B2, “Predicting drug-target interactions and uses for drug repositioning and repurposing” (GEORGETOWN UNIVERSITY, priority 2015, dated 2021)

Experiments:
VEGFR-2 = molecular target: T1, VEGFR-2 (Homo sapiens, UniProt P35968); assay: Kinomescan active site-directed competition binding assay
T1 construct: purchased Discoverx (Kinomescan); host or cells: E. coli BL21-derived host (T7 phage) or HEK-293
Description: Kinase-tagged T7 phage strains were grown in parallel in 24-well blocks in an E. coli host derived from the BL21 strain. […] The remaining kinases were produced in HEK-293 cells and subsequently tagged with DNA for qPCR detection. […] The liganded beads were blocked with excess biotin and washed with blocking buffer (SeaBlock (Pierce), 1% BSA, 0.05% Tween 20, 1 mM DTT) to remove unbound ligand and to reduce non-specific phage binding. […] All reactions were performed in polypropylene 384-well plates in a final volume of 0.04 ml. […] The kinase concentration in the eluates was measured by qPCR.
An 11-point 3-fold serial dilution of each test compound was prepared in 100% DMSO at 100× final test concentration and subsequently diluted to 1× in the assay (final DMSO concentration=1%).

hookworm tubulin = conditions: background statement; cited from earlier work
mammalian tubulin = conditions: background statement; cited from earlier work
CSNK1D = molecular target: T2, CSNK1D (Homo sapiens, UniProt P48730); assay: Kinomescan active site-directed competition binding assay; conditions: MBZ at 10 μM, lower = stronger hit, read-out: Percent Control at 10 μM
T2 construct: purchased Discoverx (Kinomescan); host or cells: E. coli BL21-derived host (T7 phage) or HEK-293
Description: (§1) Kinase assays were performed using Kinomescan, by Discoverx, CA, USA and Caliper LabChip 3000 by Caliper Life sciences, USA as described previously. The determination of MBZ thermodynamic binding affinities (Kd) to kinase targets predicted by RepurposeVS was performed by using active site-directed competition binding. Kinase-tagged T7 phage strains were grown in parallel in 24-well blocks in an E. coli host derived from the BL21 strain. E. coli bacteria were grown to log-phase and infected with T7 phage from a frozen stock (multiplicity of infection=0.4) and incubated with shaking at 32° C. until lysis (90-150 minutes). The lysates were centrifuged (6,000×g) and filtered (0.2 μm sieves) to remove cell debris. The remaining kinases were produced in HEK-293 cells and subsequently tagged with DNA for qPCR detection. […] The liganded beads were blocked with excess biotin and washed with blocking buffer (SeaBlock (Pierce), 1% BSA, 0.05% Tween 20, 1 mM DTT) to remove unbound ligand and to reduce non-specific phage binding. Binding reactions were assembled by combining kinases, control liganded affinity beads, and mebendazole in 1× binding buffer (20% SeaBlock, 0.17×PBS, 0.05% Tween 20, 6 mM DTT). Mebendazole was prepared as 40× stocks in 100% DMSO and directly diluted into the assay. All reactions were performed in polypropylene 384-well plates in a final volume of 0.04 ml. The assay plates were incubated at room temperature with shaking for 1 hour and the affinity beads were washed with wash buffer (lx PBS, 0.05% Tween 20). […] The kinase concentration in the eluates was measured by qPCR. […] The amount of kinase captured in test versus control samples were measured by using a quantitative, precise and ultra-sensitive qPCR method that detects the associated DNA label. Using (13), the primary screen binding interactions are reported as ‘% Ctrl’ (Percent kinase remaining activity), where lower numbers indicate stronger hits. In a similar manner, binding constants (Kd) for mebendazole-kinase interactions are calculated by measuring the amount of kinase captured as a function of the mebendazole concentration in a dose response manner. […] Binding constants (Kd) were calculated with a standard dose-response curve (drug dose (x-axis)−qPCR signal (y-axis)) using the Hill equation in (14) with the Hill Slope set to −1.

[1] = molecular target: T3, ABL1(T315I)-phosphorylated (Homo sapiens, UniProt P00519, T315I); assay: as above; conditions: MBZ at 10 μM, lower = stronger hit, read-out: Percent Control at 10 μM
T3 construct: purchased Discoverx (Kinomescan); host or cells: E. coli BL21-derived host (T7 phage) or HEK-293
Description: as §1

JNK3 = molecular target: T4, JNK3 (Homo sapiens, UniProt P53779); assay: as above
T4 construct: purchased Discoverx (Kinomescan); host or cells: E. coli BL21-derived host (T7 phage) or HEK-293
Description: as §1

ABL1-nonphosphorylated = molecular target: T5, ABL1-nonphosphorylated (Homo sapiens, UniProt P00519); assay: as above; conditions: MBZ at 10 μM, lower = stronger hit, read-out: Percent Control at 10 μM
T5 construct: purchased Discoverx (Kinomescan); host or cells: E. coli BL21-derived host (T7 phage) or HEK-293
Description: as §1

ABL1-phosphorylated = molecular target: T6, ABL1-phosphorylated (Homo sapiens, UniProt P00519); assay: as above
T6 construct: purchased Discoverx (Kinomescan); host or cells: E. coli BL21-derived host (T7 phage) or HEK-293
Description: as §1

PDGFR-A = molecular target: T7, PDGFR-A (Homo sapiens, UniProt P16234); assay: as above
T7 construct: purchased Discoverx (Kinomescan); host or cells: E. coli BL21-derived host (T7 phage) or HEK-293
Description: as §1

CDK7 = molecular target: T8, CDK7 (Homo sapiens, UniProt P50613); assay: as above
T8 construct: purchased Discoverx (Kinomescan); host or cells: E. coli BL21-derived host (T7 phage) or HEK-293
Description: as §1

JAK3 = molecular target: T9, JAK3 (Homo sapiens, UniProt P52333); assay: as above; conditions: MBZ at 10 μM, lower = stronger hit, read-out: Percent Control at 10 μM
T9 construct: purchased Discoverx (Kinomescan); host or cells: E. coli BL21-derived host (T7 phage) or HEK-293
Description: as §1

KIT (D816V) = molecular target: T10, KIT (D816V) (Homo sapiens, UniProt P10721, D816V); assay: as above; conditions: MBZ at 10 μM; listed as 'KIT (D816V)', value in parentheses; read-out: Percent Control at 10 μM
T10 construct: purchased Discoverx (Kinomescan); host or cells: E. coli BL21-derived host (T7 phage) or HEK-293
Description: as §1

JNK2 = molecular target: T11, JNK2 (Homo sapiens, UniProt P45984); assay: as above
T11 construct: purchased Discoverx (Kinomescan); host or cells: E. coli BL21-derived host (T7 phage) or HEK-293
Description: as §1

[2] = molecular target: T12, ABL1(E255K)-phosphorylated (Homo sapiens, UniProt P00519, E255K); assay: as above; conditions: MBZ at 10 μM, lower = stronger hit, read-out: Percent Control at 10 μM
T12 construct: purchased Discoverx (Kinomescan); host or cells: E. coli BL21-derived host (T7 phage) or HEK-293
Description: as §1

JNK1 = molecular target: T13, JNK1 (Homo sapiens, UniProt P45983); assay: as above; conditions: MBZ at 10 μM, lower = stronger hit, read-out: Percent Control at 10 μM
T13 construct: purchased Discoverx (Kinomescan); host or cells: E. coli BL21-derived host (T7 phage) or HEK-293
Description: as §1

KIT = molecular target: T14, KIT (Homo sapiens, UniProt P10721); assay: as above; conditions: listed as 'KIT (D816V)'
T14 construct: purchased Discoverx (Kinomescan); host or cells: E. coli BL21-derived host (T7 phage) or HEK-293
Description: as §1

MET = molecular target: T15, MET (Homo sapiens, UniProt P08581); assay: as above; conditions: MBZ at 10 μM, lower = stronger hit, read-out: Percent Control at 10 μM
T15 construct: purchased Discoverx (Kinomescan); host or cells: E. coli BL21-derived host (T7 phage) or HEK-293
Description: as §1

PDGFR-B = molecular target: T16, PDGFR-B (Homo sapiens, UniProt P09619); assay: as above
T16 construct: purchased Discoverx (Kinomescan); host or cells: E. coli BL21-derived host (T7 phage) or HEK-293
Description: as §1

DYRK1B = molecular target: T17, DYRK1B (Homo sapiens, UniProt Q9Y463); assay: as above
T17 construct: purchased Discoverx (Kinomescan); host or cells: E. coli BL21-derived host (T7 phage) or HEK-293
Description: as §1

P38-alpha = molecular target: T18, P38-alpha (Homo sapiens, UniProt Q16539); assay: as above
T18 construct: purchased Discoverx (Kinomescan); host or cells: E. coli BL21-derived host (T7 phage) or HEK-293
Description: as §1

DYRK1A = molecular target: T19, DYRK1A (Homo sapiens, UniProt Q13627); assay: as above; conditions: MBZ at 10 μM, lower = stronger hit, read-out: Percent Control at 10 μM
T19 construct: purchased Discoverx (Kinomescan); host or cells: E. coli BL21-derived host (T7 phage) or HEK-293
Description: as §1

PIK3CG = molecular target: T20, PIK3CG (Homo sapiens, UniProt P48736); assay: as above; conditions: MBZ at 10 μM, lower = stronger hit, read-out: Percent Control at 10 μM
T20 construct: purchased Discoverx (Kinomescan); host or cells: E. coli BL21-derived host (T7 phage) or HEK-293
Description: as §1

ULK2 = molecular target: T21, ULK2 (Homo sapiens, UniProt Q8IYT8); assay: as above; conditions: MBZ at 10 μM, lower = stronger hit, read-out: Percent Control at 10 μM
T21 construct: purchased Discoverx (Kinomescan); host or cells: E. coli BL21-derived host (T7 phage) or HEK-293
Description: as §1

SRC = molecular target: T22, SRC (Homo sapiens, UniProt P12931); assay: as above; conditions: MBZ at 10 μM, lower = stronger hit, read-out: Percent Control at 10 μM
T22 construct: purchased Discoverx (Kinomescan); host or cells: E. coli BL21-derived host (T7 phage) or HEK-293
Description: as §1

GSK3B = molecular target: T23, GSK3B (Homo sapiens, UniProt P49841); assay: as above; conditions: MBZ at 10 μM, lower = stronger hit, read-out: Percent Control at 10 μM
T23 construct: purchased Discoverx (Kinomescan); host or cells: E. coli BL21-derived host (T7 phage) or HEK-293
Description: as §1

[3] = 11-point dose response, read-out: Binding Affinity (Kd)
[4] = MBZ at 10 μM, lower = stronger hit, read-out: Percent Control at 10 μM

T8 sequence (P50613 whole entry): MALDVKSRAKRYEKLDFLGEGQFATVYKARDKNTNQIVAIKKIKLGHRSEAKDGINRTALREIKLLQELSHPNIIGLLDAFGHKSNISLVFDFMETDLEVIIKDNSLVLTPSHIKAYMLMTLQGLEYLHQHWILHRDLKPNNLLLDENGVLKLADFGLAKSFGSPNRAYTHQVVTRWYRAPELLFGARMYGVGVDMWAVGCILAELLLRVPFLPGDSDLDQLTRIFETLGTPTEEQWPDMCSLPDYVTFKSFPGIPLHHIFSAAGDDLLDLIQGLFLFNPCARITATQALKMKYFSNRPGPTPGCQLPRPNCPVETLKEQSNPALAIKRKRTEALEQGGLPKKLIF
T14 sequence (P10721 26-976): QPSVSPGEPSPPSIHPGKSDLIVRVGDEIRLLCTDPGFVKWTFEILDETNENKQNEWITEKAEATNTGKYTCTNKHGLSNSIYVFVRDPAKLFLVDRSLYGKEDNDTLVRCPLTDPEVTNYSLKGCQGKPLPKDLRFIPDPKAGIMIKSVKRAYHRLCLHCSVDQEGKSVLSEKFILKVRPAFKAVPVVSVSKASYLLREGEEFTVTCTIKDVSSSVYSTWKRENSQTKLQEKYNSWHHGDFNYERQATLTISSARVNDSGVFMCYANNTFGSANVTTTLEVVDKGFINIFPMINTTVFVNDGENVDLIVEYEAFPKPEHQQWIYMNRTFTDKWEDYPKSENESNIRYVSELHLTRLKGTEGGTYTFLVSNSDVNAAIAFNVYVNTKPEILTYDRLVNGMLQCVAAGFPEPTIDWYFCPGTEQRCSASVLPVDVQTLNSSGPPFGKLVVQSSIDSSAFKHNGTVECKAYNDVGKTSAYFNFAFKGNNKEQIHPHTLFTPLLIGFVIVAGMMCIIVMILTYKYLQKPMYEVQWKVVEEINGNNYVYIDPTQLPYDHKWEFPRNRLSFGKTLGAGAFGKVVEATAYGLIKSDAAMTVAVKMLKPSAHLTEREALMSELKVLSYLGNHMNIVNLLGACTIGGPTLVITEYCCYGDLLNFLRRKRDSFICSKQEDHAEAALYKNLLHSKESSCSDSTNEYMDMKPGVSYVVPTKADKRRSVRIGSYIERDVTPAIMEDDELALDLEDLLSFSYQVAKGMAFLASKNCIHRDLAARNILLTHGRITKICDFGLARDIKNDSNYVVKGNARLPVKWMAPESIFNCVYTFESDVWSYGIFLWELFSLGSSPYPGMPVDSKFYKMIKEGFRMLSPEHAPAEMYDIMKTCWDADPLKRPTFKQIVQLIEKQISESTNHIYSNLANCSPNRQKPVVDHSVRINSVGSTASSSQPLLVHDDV
T4 sequence (P53779 whole entry): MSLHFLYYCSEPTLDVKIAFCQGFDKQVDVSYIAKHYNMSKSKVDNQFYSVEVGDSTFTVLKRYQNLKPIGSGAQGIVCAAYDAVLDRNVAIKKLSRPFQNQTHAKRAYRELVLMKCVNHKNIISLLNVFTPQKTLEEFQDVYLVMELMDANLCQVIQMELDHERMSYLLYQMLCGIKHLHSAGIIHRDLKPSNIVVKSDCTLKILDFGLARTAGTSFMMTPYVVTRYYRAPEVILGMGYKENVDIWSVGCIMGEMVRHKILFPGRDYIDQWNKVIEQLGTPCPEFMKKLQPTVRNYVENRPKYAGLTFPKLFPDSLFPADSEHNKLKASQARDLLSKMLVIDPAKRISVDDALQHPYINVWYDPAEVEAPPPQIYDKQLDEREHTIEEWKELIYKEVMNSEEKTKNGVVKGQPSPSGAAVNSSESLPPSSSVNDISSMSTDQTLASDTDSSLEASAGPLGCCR
T11 sequence (P45984 whole entry): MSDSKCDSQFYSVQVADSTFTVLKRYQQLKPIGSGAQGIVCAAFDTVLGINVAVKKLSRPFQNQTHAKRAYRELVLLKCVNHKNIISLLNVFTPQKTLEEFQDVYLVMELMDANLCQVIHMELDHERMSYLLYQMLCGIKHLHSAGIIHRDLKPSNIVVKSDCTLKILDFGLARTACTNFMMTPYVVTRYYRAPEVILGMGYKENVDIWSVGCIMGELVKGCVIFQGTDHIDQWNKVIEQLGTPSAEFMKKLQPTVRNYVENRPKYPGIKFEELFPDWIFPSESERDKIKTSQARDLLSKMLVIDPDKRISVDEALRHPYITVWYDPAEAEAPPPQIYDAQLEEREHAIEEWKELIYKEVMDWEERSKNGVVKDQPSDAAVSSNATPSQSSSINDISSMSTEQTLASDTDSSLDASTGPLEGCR
T1 sequence (P35968 20-1356): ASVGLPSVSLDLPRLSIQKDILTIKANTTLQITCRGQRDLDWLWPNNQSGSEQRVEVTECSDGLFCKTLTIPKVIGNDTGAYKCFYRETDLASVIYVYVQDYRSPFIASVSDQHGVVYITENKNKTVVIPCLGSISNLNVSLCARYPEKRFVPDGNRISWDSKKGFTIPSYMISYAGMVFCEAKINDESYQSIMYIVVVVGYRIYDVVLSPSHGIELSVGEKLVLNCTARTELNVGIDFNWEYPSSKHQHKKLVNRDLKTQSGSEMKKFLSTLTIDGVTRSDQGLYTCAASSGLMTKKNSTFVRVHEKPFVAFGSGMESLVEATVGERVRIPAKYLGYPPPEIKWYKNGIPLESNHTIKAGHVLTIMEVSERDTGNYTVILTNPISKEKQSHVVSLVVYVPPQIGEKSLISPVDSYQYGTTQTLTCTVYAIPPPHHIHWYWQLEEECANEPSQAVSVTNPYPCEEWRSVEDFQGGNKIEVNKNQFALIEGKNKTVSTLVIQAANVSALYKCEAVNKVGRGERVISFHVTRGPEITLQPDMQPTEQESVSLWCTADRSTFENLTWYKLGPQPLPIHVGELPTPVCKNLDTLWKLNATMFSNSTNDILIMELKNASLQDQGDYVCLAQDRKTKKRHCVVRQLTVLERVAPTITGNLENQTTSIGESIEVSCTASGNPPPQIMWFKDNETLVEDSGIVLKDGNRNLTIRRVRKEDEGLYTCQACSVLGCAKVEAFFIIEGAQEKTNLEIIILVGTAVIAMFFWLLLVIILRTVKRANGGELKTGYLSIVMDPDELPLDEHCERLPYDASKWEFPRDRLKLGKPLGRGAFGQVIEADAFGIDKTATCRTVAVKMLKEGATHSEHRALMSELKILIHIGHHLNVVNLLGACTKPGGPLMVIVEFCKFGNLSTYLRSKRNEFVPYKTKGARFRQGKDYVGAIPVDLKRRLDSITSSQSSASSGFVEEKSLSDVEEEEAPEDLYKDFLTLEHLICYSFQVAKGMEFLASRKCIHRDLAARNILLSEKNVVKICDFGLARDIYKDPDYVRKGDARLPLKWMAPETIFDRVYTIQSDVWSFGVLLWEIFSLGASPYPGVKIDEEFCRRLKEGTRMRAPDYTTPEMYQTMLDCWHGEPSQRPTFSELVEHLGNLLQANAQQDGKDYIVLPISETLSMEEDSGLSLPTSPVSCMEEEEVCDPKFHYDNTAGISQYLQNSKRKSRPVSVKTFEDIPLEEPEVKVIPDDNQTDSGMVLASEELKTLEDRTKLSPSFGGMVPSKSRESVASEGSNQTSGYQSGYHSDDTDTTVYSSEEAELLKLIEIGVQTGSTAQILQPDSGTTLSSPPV
T7 sequence (P16234 24-1089): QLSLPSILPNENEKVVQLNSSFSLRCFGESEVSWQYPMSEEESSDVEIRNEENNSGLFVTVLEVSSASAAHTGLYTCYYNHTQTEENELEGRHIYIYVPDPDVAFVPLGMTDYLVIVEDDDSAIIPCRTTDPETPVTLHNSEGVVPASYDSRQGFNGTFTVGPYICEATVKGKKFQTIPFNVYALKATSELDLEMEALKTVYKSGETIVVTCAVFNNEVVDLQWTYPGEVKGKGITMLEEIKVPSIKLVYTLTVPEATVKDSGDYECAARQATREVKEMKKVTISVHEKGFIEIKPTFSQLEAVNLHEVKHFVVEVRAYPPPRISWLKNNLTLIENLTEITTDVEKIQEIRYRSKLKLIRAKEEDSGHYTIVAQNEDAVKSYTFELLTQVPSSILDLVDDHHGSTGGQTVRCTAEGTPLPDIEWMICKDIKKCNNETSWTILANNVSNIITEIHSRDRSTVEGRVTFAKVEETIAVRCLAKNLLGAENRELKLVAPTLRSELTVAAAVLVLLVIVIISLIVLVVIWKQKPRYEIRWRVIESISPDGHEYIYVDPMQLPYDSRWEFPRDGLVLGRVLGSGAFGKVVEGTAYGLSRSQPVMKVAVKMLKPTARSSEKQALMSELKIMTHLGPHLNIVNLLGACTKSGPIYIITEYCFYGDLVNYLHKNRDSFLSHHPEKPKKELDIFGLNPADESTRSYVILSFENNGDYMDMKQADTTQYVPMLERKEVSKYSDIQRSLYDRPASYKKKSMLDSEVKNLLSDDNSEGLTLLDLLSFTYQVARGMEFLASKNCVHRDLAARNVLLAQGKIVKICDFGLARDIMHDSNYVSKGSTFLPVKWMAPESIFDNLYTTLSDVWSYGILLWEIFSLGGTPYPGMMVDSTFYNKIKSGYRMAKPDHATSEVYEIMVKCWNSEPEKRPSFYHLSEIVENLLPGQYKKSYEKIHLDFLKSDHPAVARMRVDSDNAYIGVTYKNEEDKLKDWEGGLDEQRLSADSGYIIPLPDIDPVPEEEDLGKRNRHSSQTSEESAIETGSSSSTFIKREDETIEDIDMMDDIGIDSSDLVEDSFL
T18 sequence (Q16539 whole entry): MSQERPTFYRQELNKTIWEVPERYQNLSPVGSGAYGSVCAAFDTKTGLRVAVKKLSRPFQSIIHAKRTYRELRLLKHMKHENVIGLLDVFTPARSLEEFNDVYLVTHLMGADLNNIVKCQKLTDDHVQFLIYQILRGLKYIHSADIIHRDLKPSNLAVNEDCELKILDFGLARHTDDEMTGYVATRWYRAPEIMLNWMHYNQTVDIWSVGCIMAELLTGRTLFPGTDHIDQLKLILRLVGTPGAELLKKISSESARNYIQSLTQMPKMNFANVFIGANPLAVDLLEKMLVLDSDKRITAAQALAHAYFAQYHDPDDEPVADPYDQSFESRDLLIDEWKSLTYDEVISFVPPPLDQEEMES
T10 sequence (P10721 26-976 D816V): as the sequence (P10721 26-976) above, with D791V counted along it

In the case of `COC(=O)Nc1nc2ccc(C(=O)c3ccccc3)cc2[nH]1` [MBZ, mebendazole], the Kd (VEGFR-2; [3]) is listed as 3600 nM, the remaining binding at 10 µM (VEGFR-2; [4]) is listed as 30% and the “inhibition of hookworm tubulin” value (hookworm tubulin) is listed as “potent nanomolar inhibition”. The “potency on mammalian tubulin relative to hookworm tubulin (fold less)” value (mammalian tubulin) was 1000 ×, the remaining binding at 10 µM (CSNK1D) was 36% and the remaining binding at 10 µM [1] was 3.2%. It also gave a Kd (JNK3; [3]) of 410 nM, a remaining binding at 10 µM (JNK3; [4]) of 3% and a remaining binding at 10 µM (ABL1-nonphosphorylated) of 2%. It also gave a Kd (ABL1-phosphorylated; [3]) of 120 nM, a remaining binding at 10 µM (ABL1-phosphorylated; [4]) of 0.9% and a Kd (PDGFR-A; [3]) of 820 nM. It also gave a remaining binding at 10 µM (PDGFR-A; [4]) of 7.8%, a Kd (CDK7; [3]) of 390 nM and a remaining binding at 10 µM (CDK7; [4]) of 11%. It also gave a remaining binding at 10 µM (JAK3) of 29%, a remaining binding at 10 µM (KIT (D816V)) of 33% and a Kd (JNK2; [3]) of 1090 nM. It also gave a remaining binding at 10 µM (JNK2; [4]) of 9.6%, a remaining binding at 10 µM [2] of 2.2% and a remaining binding at 10 µM (JNK1) of 14%. It also gave a remaining binding at 10 µM (KIT; MBZ at 10 μM, value outside parentheses, read-out: Percent Control at 10 μM) of 7.4%, a Kd (KIT; [3]) of 750 nM and a remaining binding at 10 µM (MET) of 32%. For the same compound, the Kd (PDGFR-B; [3]) was 660 nM, the remaining binding at 10 µM (PDGFR-B; [4]) was 3.2% and the Kd (DYRK1B; [3]) was 340 nM. It also gave a remaining binding at 10 µM (DYRK1B; [4]) of 5.6%, a Kd (P38-alpha; [3]) of 1660 nM and a remaining binding at 10 µM (P38-alpha; [4]) of 17%. The remaining binding at 10 µM (DYRK1A) was 34%, the remaining binding at 10 µM (PIK3CG) was 18% and the remaining binding at 10 µM (ULK2) was 30%. It also gave a remaining binding at 10 µM (SRC) of 34% and a remaining binding at 10 µM (GSK3B) of 35%.
